Values of other authors in publication PMC9042378 (RSC Advances, 2021).

system: Tyr

Compound	Tyr inhibition type
O=C1c2c(O)cc(O)cc2O[C@H](c2cc(O)c(O)c(O)c2)[C@H]1O [dihydromyricetin]	Mixed inhibition
O=C(O[C@@H]1Cc2c(O)cc(O)cc2O[C@@H]1c1ccc(O)c(O)c1)c1cc(O)c(O)c(O)c1 [epicatechin gallate]	Mixed inhibition
O=c1cc(CO)occ1O [kojic acid]	Mixed inhibition
CCC(C)C(=O)c1c(O)c(Cc2c(O)c(C)c(O)c(C(=O)C(C)C)c2O)c(O)c2c1OC(C)(C)C=C2 (centres unmarked) [mallotophilippen A]	Mixed inhibition
mallotophilippen B	Mixed inhibition
